Experimental findings from patent US10940139B2, “Compounds that interact with the Ras superfamily for the treatment of cancers, inflammatory diseases, rasopathies, and fibrotic disease” (Shy Therapeutics LLC, priority 2017, dated 2021) are described below.

The structures appear in SMILES notation.

The first assay deals with KRas G12D/Q61H double mutant (Homo sapiens (Human), UniProt P01116, G12D/Q61H). In words: Ras GTP binding domain inhibition assay (labeled GTP). To be noted: 20 μM compound; KRas G12D/Q61H double mutant. The protocol: Buffer-I: • 50 mM Tris, pH 7.5 • 150 mM NaCl (optional) • 1 mM MgCl2 • 1 mM DTT. • KRas G12D mutant protein was expressed as a His-tagged protein. Purified His-KRas G12D protein was diluted in buffer-I to a final concentration of 3-10 μg/ml. • 200 μl of the diluted His-KRas G12D protein was added to a nickel coated 96 well plate and incubated overnight at 4° C. • The next day, wells were washed 3× in 200 μl of Buffer-I. • Then 200 μl of Buffer-I were added to each well in the presence of 1% DMSO. • Tested compounds were added to the protein-coated wells at a concentration of 20 μM, and incubated for 3 hours at room temperature. While performing IC50 measurements a serial dilution of all tested concentrations was prepared.
Sequence of KRas G12D/Q61H double mutant (P01116-2 other isoform, or with tags, fused parts or gaps G12D/Q61H): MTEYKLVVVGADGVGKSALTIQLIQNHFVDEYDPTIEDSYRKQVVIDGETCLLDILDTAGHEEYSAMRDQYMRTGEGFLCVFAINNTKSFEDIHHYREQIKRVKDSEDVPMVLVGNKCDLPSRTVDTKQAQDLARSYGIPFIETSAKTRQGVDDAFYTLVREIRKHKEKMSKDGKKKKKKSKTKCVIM
Then 22 μl of Cy3-GTP or Cy5-GTP was added to each well. The labeled GTP was incubated for 45 min. at room temperature. • Following GTP incubation, wells were washed 3× in Buffer-I, and 200 μl of Buffer-I were added to each well. • Following washes, the amount of bound labeled-GTP was measured with an Eppendorf AF2200 plate reader.
By substituting KRas G12D mutant protein with KRas G12C mutant, KRas wild type, KRas Q61H mutant, KRas G12D/Q61H double mutant or KRas G12C/Q61H double mutant under the assay conditions described above, KRas G12C mutant KRas wild type, KRas Q61H mutant, KRas G12D/Q61H double mutant and KRas G12C/Q61H double mutant inhibition, respectively, were each determined.
Consider `O=C(Cc1ccc2c(c1)OCCO2)Nc1nc(-c2ccccn2)cs1` [drawing 3247], for which the “% Inhibition at 20 μM of K-Ras mutant and wild-type protein, KRas G12D Q61H” value is recorded as “A (1-25% inhibition)”.

The assay is the same for the next values; noted with them: 20 μM compound; KRas G12D/Q61H double mutant; read-out: % Inhibition at 20 μM of K-Ras mutant and wild-type protein, KRas G12D Q61H.
As to `CCN(CC)S(=O)(=O)c1ccc(C(C)NCc2ccc(Cl)s2)cc1` (stereo not drawn), the inhibition at 20 µM lay in the range of 25 to 50%. Turning to `COc1ccc(C)cc1-n1ccc(C(=O)N2CCCC2C(O)C(F)(F)F)n1` (stereo not drawn), the inhibition at 20 µM lay within 1 to 25%.

For `NCC(=O)NCc1ccc(Oc2ccc(F)c(F)c2)cc1C(F)(F)F`, the inhibition at 20 µM was in the range of 1 to 25%. On the same count and under the same terms, in the case of `Cc1cc(C)c(C)c(S(=O)(=O)N2CCN(C(C)C(=O)NCc3ccc4c(c3)OCO4)CC2)c1C` (stereo not drawn) it was 1 to 25%; in that of `O=c1c(Cc2cc(Cl)c3cccnc3c2O)c(O)oc2ccccc12`, 25 to 50%; in that of `CCN(C(=O)CCc1c(C)nc(-c2ccccn2)nc1O)C1CCCC1`, 51 to 75%. On the same count and under the same terms, in the case of `CCCN(CC1CC1)S(=O)(=O)Oc1ccc(N(C)S(=O)(=O)c2cccs2)cc1` it was 25 to 50%.

Turning to `CCOC(=O)c1c(-c2ccc(Br)cc2)csc1/N=C/N(C)C`, the inhibition at 20 µM was in the range of 25 to 50%. Still for that read-out and setting: under `CCOC(=O)c1c(NC(=O)c2c(N)n(CCCOC)c3nc4ccccc4nc23)sc2c1CCCC2` stands 1 to 25%. On the same count and under the same terms, in the case of `CCOc1ccc(CSc2nnc(-c3ccco3)n2-c2ccccc2)cc1OCC` it was 25 to 50%; in that of `CCCn1c(CNc2cccc(Cl)c2OCCOCC)nc2cc(S(=O)(=O)N(C)C)ccc21`, 25 to 50%.

As for `COc1ccc(CCNC(=O)COC(=O)c2c(NC(=O)C(C)(C)C)sc(C)c2C)cc1`, the inhibition at 20 µM was in the range of 25 to 50%. On the same count and under the same terms, under `O=C(COc1ccccc1C(=O)c1cnn(-c2ccccc2)c1)NCC1CCCCC1` stands 25 to 50%; under `COC(=O)c1c(NC(=O)Cc2cc(OC)c(OC)c(OC)c2)sc2c1CCCCC2`, 25 to 50%. Same read-out and setting: in the case of `OC(CNC(Cc1ccccc1)c1nc(-c2ccccc2)no1)COCc1ccccc1Cl` (stereo not drawn) it was 25 to 50%; in that of `CCOc1ccc(-c2nc(CSc3nc4ccccc4n3CCOC)cs2)cc1OC`, 25 to 50%; in that of `NC(=O)c1cc(-c2csc(N3CCCCC3)n2)ccc1O`, 1 to 25%. Still for that read-out and setting: under `CCCOc1nc2ccccc2nc1N1CCN(c2ccccc2F)CC1` stands 25 to 50%; under `C=CCN(Cc1ccc(Cl)s1)C(=O)COC(=O)c1cc(OC)ccc1O`, 25 to 50%; under `CN(Cc1ccccc1C(F)(F)F)S(=O)(=O)CCc1ccccc1[N+](=O)[O-]`, 25 to 50%.

The assay is the same for the next values; noted with them: 20 μM compound; read-out: % Inhibition at 20 μM KRas G12D Q61H.
Regarding `Nc1nc(O)c2scc(C(=O)N3CCC(N4CCCC4=O)CC3)c2n1` [drawing 2663], the inhibition at 20 µM was 25 to 50%. On the same count and under the same terms, under `Cc1cc(C2CCCN2c2cc(C(F)(F)F)nc3ncnn23)no1` (stereo not drawn) stands 1 to 25%; under `O=C1COc2cc(C(=O)Nc3nc(-c4ccccn4)cs3)ccc2N1`, 25 to 50%. Turning to `CN(C)C1CN(C(=O)Nc2nc(-c3cccnc3)cs2)C1`, the inhibition at 20 µM is 1 to 25%. Still for that read-out and setting: under `CC(C)Cc1noc(CNc2cc(C(F)(F)F)ccc2N2CCCC2)n1` stands 25 to 50%.

Take `O=C(Nc1nnc(-c2ccccn2)[nH]1)c1ccc(Oc2ccccc2)cc1`: the inhibition at 20 µM was 25 to 50%.

As for `CC(C1CC1)N(CC(F)(F)F)C(=O)Cc1ccc(Cl)cc1Cl` (stereo not drawn), the inhibition at 20 µM lay within 25 to 50%. On the same count and under the same terms, under `COC(=O)c1cccc(NCc2nc(CC(C)C)no2)c1` stands 25 to 50%; under `CCc1ccc(OCC(=O)Nc2nnc(-c3ccccn3)[nH]2)cc1`, 25 to 50%; under `Cc1sc(NC2CCCCC2)nc1-c1ccc(F)c(F)c1`, 25 to 50%. The same measure, in the same setting: in the case of `COC(=O)c1csc2c(O)nc(-c3ccccn3)nc12` [drawing 2823] it was 1 to 25%; in that of `CN(Cc1ccc(Br)cc1)Cc1ccc(C(=O)NCC(F)(F)F)cc1`, 1 to 25%; in that of `CN(Cc1ccc(OCc2ccccn2)cc1)Cc1ccccc1OC(F)(F)F`, 1 to 25%. The same measure, in the same setting: in the case of `CCc1noc(CN(C)c2nc(-c3ccccn3)nc3c2CCC3)n1` it was 25 to 50%; in that of `N#Cc1ccc(-c2nnc(CN3CCOc4ccccc4C3)o2)cc1`, 25 to 50%. In the case of `Cc1ccc(S(=O)(=O)NC(c2ccccc2)c2ccccn2)c(Cl)c1` (stereo not drawn), the inhibition at 20 µM lay within 25 to 50%.

Turning to `O=C(Nc1nnc(-c2ccccn2)[nH]1)C1CC=CCC1` (stereo not drawn), the inhibition at 20 µM is 25 to 50%. On the same count and under the same terms, in the case of `CCOCCC1CCN(C(=O)c2csc3c(O)nc(N)nc23)CC1` [drawing 2660] it was 1 to 25%. As for `O=C(c1csc2c(O)nc(-c3ccccn3)nc12)N1CCOC(c2ccc(Cl)cc2)C1` (stereo not drawn) [drawing 2730], the inhibition at 20 µM fell in the range of 25 to 50%. On the same count and under the same terms, under `CN(C)S(=O)(=O)c1ccc(N2CCCC2)c(C(=O)NCCCN2CCCC2=O)c1` stands 25 to 50%; under `CCOC(=O)NC1CCN(C(=O)c2csc3c(O)nc(-c4ccccn4)nc23)CC1` [drawing 2685], 51 to 75%. With `O=C(NCCc1cnc(O)nc1)c1csc2nc(-c3ccccn3)nc(N3CCOCC3)c12` [drawing 2810], the inhibition at 20 µM is 1 to 25%.

In the case of `COc1ccccc1CN(Cc1cccs1)C(=O)c1ccc(Br)o1`, the inhibition at 20 µM is 25 to 50%. Same read-out and setting: in the case of `CCN(CC)S(=O)(=O)c1ccc(NCCOC)c(C(=O)NCCC(C)C)c1` it was 1 to 25%. As to `CN1CCN(Cc2nnc(-c3ccccc3Cl)o2)c2ccc(F)cc21`, the inhibition at 20 µM was 25 to 50%. Take `CC1=C(c2ccccc2)C2C(=O)NC(c3cnccn3)=NC2S1` (stereo not drawn): the inhibition at 20 µM is 25 to 50%. On the same count and under the same terms, under `CCC(C)c1ccc(S(=O)(=O)N(C)C(c2ccccc2)c2ccccn2)cc1` (stereo not drawn) stands 25 to 50%. On the same count and under the same terms, under `COc1cc2c(cc1OC)CCN(C(=O)c1csc3c(O)nc(N)nc13)CC2` [drawing 2672] stands 25 to 50%; under `Oc1nc(-c2ccccn2)nc2[nH]cnc12` [drawing 2696], 25 to 50%; under `CCOc1ccc(NC(=O)CN(C)Cc2coc(-c3ccc(C)cc3C)n2)cc1OCC`, 1 to 25%.

Consider `c1cc2c(cc1-c1csc(C3CC3)n1)CCC2`, for which the inhibition at 20 µM lay within 1 to 25%. Consider `CC1CCN(C(=O)c2csc3c(O)nc(N)nc23)CC1` [drawing 2658], for which the inhibition at 20 µM lay within 1 to 25%. The same measure, in the same setting: under `CC(C)c1ccc2nc(-c3ccccn3)[nH]c(=O)c2c1` stands 25 to 50%. Still for that read-out and setting: under `CN1CC(Nc2nc(-c3ccccn3)nc3c2CCC3)CCC1=O` (stereo not drawn) stands 25 to 50%. Still for that read-out and setting: under `Cc1nc(CC(C)C)sc1C(=O)Nc1nnc(-c2ccccn2)[nH]1` stands 1 to 25%; under `CN(Cc1ccc(C(=O)NCC(F)(F)F)cc1)Cc1ccc([N+](=O)[O-])cc1`, 25 to 50%.

The same assay, now with this note: 20 μM; read-out: KRas G12D Q61H % Inh.
In the case of `O=C(Nc1nnc(-c2ccccn2)[nH]1)C1CCCN(c2cnccn2)C1` (stereo not drawn) [drawing 2527], the inhibition at 20 µM fell in the range of 51 to 75%. On the same count and under the same terms, under `CC(C)(C)c1nc(C(=O)Nc2nnc(-c3ccccn3)[nH]2)cs1` [drawing 2543] stands 51 to 75%; under `Cc1c(C(=O)Nc2nnc(-c3ccccn3)[nH]2)oc2ccccc12` [drawing 2465], 51 to 75%; under `Cc1nc(-c2ccccn2)nc(O)c1CCC(=O)Nc1ccc(C(C)C)cc1` [drawing 2598], 51 to 75%. The same measure, in the same setting: under `COc1ccc(COCC(=O)N2CCCc3c(O)nc(-c4ccccn4)nc32)cc1` [drawing 2639] stands 76 to 100%. On the same count and under the same terms, under `O=C(Nc1nnc(-c2ccccn2)[nH]1)C1CCCC1` [drawing 2489] stands 51 to 75%.

On to `COc1cccc(CCC(=O)Nc2nnc(-c3ccccn3)[nH]2)c1` [drawing 2453], for which the inhibition at 20 µM is 51 to 75%. Still for that read-out and setting: in the case of `FC(F)(F)Sc1ccc(Cc2ccc(SC(F)(F)F)cc2)cc1` [drawing 2616] it was 51 to 75%; in that of `COC(=O)c1cncc(C(=O)Nc2nnc(-c3ccccn3)[nH]2)c1` [drawing 2529], 51 to 75%; in that of `N#Cc1cccc(OCC(=O)Nc2nnc(-c3ccccn3)[nH]2)c1` [drawing 2523], 51 to 75%.

With `COC(=O)C(C)CN(Cc1ccccc1)c1nc(C(F)(F)F)ccc1C#N` (stereo not drawn) [drawing 2631], the inhibition at 20 µM lay in the range of 25 to 50%. On the same count and under the same terms, in the case of `O=C(Nc1nnc(-c2ccccn2)[nH]1)C1CCCC(C(F)(F)F)C1` (stereo not drawn) [drawing 2518] it was 51 to 75%; in that of `CC(C)C(=O)Nc1nc(CC(=O)Nc2nnc(-c3ccccn3)[nH]2)cs1` [drawing 2541], 51 to 75%; in that of `CCCOc1ccc2ccccc2c1CN(C)S(=O)(=O)N1CC(C)OC(C)C1` (stereo not drawn) [drawing 2626], 25 to 50%. As to `CC(C1CC1)N(CC(F)(F)F)C(=O)Cc1ccc(-c2ccccc2)cc1` (stereo not drawn) [drawing 2630], the inhibition at 20 µM was in the range of 51 to 75%.

The same assay, now with this note: at 20 μM; read-out: KRas G12D Q61H % Inh.
As to `Cc1cc2nc(-c3ccccn3)nc(O)c2s1` [drawing 3791], the inhibition at 20 µM fell in the range of 51 to 75%. The same measure, in the same setting: under `COC(=O)c1c(C)sc2nc(-c3ccccn3)nc(N)c12` [drawing 3804] stands 51 to 75%.

The same assay, now with this note: read-out: KRas G12D Q61H IC50.
Regarding `COc1ccc(COCC(=O)N2CCCc3c(O)nc(-c4ccccn4)nc32)cc1` [drawing 2639], the IC50 is less than 5 µM.

For orientation: IC50 means the concentration that inhibits the measured activity by half.
